Test results: patent US4971965A, “Antibiotics TAN-1057” (Takeda Chemical Industries, Ltd., priority 1988, dated 1990)
In brackets after ≈: the same amount, converted by molar mass. Where two headings read alike, the source gives them in different places. Values belong to the compound of their own block, whether it stands above or below them.

What was measured:
Assay in all cases: Antibacterial activity against clinically isolated S. aureus (agar dilution MIC, Table 2)
Assay type in all cases: cell-based
[1] = system: Staphylococcus aureus FDA 209P; conditions: Staphylococcus aureus, FDA209P
Method: (§1) DMPPC: Methicillin, KM: Kanamycin, GM: Gentamycin, EM: Erythromycin (Note
(§2) Determined by the agar dilution method. Medium: Mueller Hinton medium
(§3) (Difco, USA) Inoculum Size: 10^6 CFU/ml, 37° C.

[2] = system: Staphylococcus aureus N262; conditions: Staphylococcus aureus
Method: as §1, §2, §3

[3] = system: Staphylococcus aureus C4; conditions: Staphylococcus aureus
Method: as §1, §2, §3

[4] = system: Staphylococcus aureus N62; conditions: Staphylococcus aureus
Method: as §1, §2, §3

[5] = system: Staphylococcus aureus C10; conditions: Staphylococcus aureus
Method: as §1, §2, §3

[6] = system: Staphylococcus aureus N91; conditions: Staphylococcus aureus
Method: as §1, §2, §3

[7] = system: Staphylococcus aureus N8; conditions: Staphylococcus aureus
Method: as §1, §2, §3

[8] = system: Staphylococcus aureus N237; conditions: Staphylococcus aureus
Method: as §1, §2, §3

[9] = system: Staphylococcus aureus N51; conditions: Staphylococcus aureus
Method: as §1, §2, §3

[10] = system: Staphylococcus aureus N121; conditions: Staphylococcus aureus
Method: as §1, §2, §3

[11] = system: Staphylococcus aureus TST-75; conditions: Staphylococcus aureus, TST75
Method: as §1, §2, §3

[12] = system: Staphylococcus aureus N28; conditions: Staphylococcus aureus
Method: as §1, §2, §3

[13] = system: Staphylococcus aureus N176-6; conditions: Staphylococcus aureus, N1766
Method: as §1, §2, §3

[14] = system: Staphylococcus aureus TS-65; conditions: Staphylococcus aureus, TS65
Method: as §1, §2, §3

[15] = system: Staphylococcus aureus N176-3; conditions: Staphylococcus aureus, N1763
Method: as §1, §2, §3

[16] = system: Staphylococcus aureus N235; conditions: Staphylococcus aureus
Method: as §1, §2, §3

[17] = system: Staphylococcus aureus N247-16; conditions: Staphylococcus aureus, N24716
Method: as §1, §2, §3

[18] = system: Staphylococcus aureus N247; conditions: Staphylococcus aureus
Method: as §1, §2, §3

[19] = system: Staphylococcus aureus N129; conditions: Staphylococcus aureus
Method: as §1, §2, §3

[20] = system: Staphylococcus aureus N326; conditions: Staphylococcus aureus
Method: as §1, §2, §3

[21] = system: Staphylococcus aureus C3; conditions: Staphylococcus aureus
Method: as §1, §2, §3

[22] = system: Staphylococcus aureus N267; conditions: Staphylococcus aureus
Method: as §1, §2, §3

[23] = system: Staphylococcus aureus N176; conditions: Staphylococcus aureus
Method: as §1, §2, §3

[24] = system: Staphylococcus aureus C7; conditions: Staphylococcus aureus
Method: as §1, §2, §3

[25] = system: Staphylococcus aureus N83; conditions: Staphylococcus aureus
Method: as §1, §2, §3

[26] = system: Staphylococcus aureus N247-21; conditions: Staphylococcus aureus, N24721
Method: as §1, §2, §3

[27] = system: Staphylococcus aureus N64; conditions: Staphylococcus aureus
Method: as §1, §2, §3

MIC ([1]; strain FDA 209P, agar dilution, Mueller Hinton medium, 10^6 CFU/ml, read-out: MIC): 1.56 µg/mL (≈ 4.1 µM)
MIC ([2]; strain N262, agar dilution, Mueller Hinton medium, 10^6 CFU/ml, read-out: MIC): 100 µg/mL (≈ 263 µM)
MIC ([3]; strain C4, agar dilution, Mueller Hinton medium, 10^6 CFU/ml, read-out: MIC): 50 µg/mL (≈ 131 µM)
MIC ([4]; strain N62, agar dilution, Mueller Hinton medium, 10^6 CFU/ml, read-out: MIC): 3.13 µg/mL (≈ 8.23 µM)
MIC ([5]; strain C10, agar dilution, Mueller Hinton medium, 10^6 CFU/ml, read-out: MIC): 800 µg/mL (≈ 2100 µM)
MIC ([6]; strain N91, agar dilution, Mueller Hinton medium, 10^6 CFU/ml, read-out: MIC): 1.56 µg/mL (≈ 4.1 µM)
MIC ([7]; strain N8, agar dilution, Mueller Hinton medium, 10^6 CFU/ml, read-out: MIC): 1.56 µg/mL (≈ 4.1 µM)
MIC ([8]; strain N237, agar dilution, Mueller Hinton medium, 10^6 CFU/ml, read-out: MIC): 20 µg/mL (≈ 52.6 µM)
MIC ([9]; strain N51, agar dilution, Mueller Hinton medium, 10^6 CFU/ml, read-out: MIC): 1.56 µg/mL (≈ 4.1 µM)
MIC ([10]; strain N121, agar dilution, Mueller Hinton medium, 10^6 CFU/ml, read-out: MIC): 50 µg/mL (≈ 131 µM)
MIC ([11]; strain TST-75, agar dilution, Mueller Hinton medium, 10^6 CFU/ml, read-out: MIC): 12.5 µg/mL (≈ 32.9 µM)
MIC ([12]; strain N28, agar dilution, Mueller Hinton medium, 10^6 CFU/ml, read-out: MIC): 1600 µg/mL (≈ 4210 µM)
MIC ([13]; strain N176-6, agar dilution, Mueller Hinton medium, 10^6 CFU/ml, read-out: MIC): 200 µg/mL (≈ 526 µM)
MIC ([14]; strain TS-65, agar dilution, Mueller Hinton medium, 10^6 CFU/ml, read-out: MIC): > 1600 µg/mL
MIC ([15]; strain N176-3, agar dilution, Mueller Hinton medium, 10^6 CFU/ml, read-out: MIC): 50 µg/mL (≈ 131 µM)
MIC ([16]; strain N235, agar dilution, Mueller Hinton medium, 10^6 CFU/ml, read-out: MIC): 1.56 µg/mL (≈ 4.1 µM)
MIC ([17]; strain N247-16, agar dilution, Mueller Hinton medium, 10^6 CFU/ml, read-out: MIC): > 1600 µg/mL
MIC ([18]; strain N247, agar dilution, Mueller Hinton medium, 10^6 CFU/ml, read-out: MIC): 50 µg/mL (≈ 131 µM)
MIC ([19]; strain N129, agar dilution, Mueller Hinton medium, 10^6 CFU/ml, read-out: MIC): 400 µg/mL (≈ 1050 µM)
MIC ([20]; strain N326, agar dilution, Mueller Hinton medium, 10^6 CFU/ml, read-out: MIC): 1600 µg/mL (≈ 4210 µM)
MIC ([21]; strain C3, agar dilution, Mueller Hinton medium, 10^6 CFU/ml, read-out: MIC): 50 µg/mL (≈ 131 µM)
MIC ([22]; strain N267, agar dilution, Mueller Hinton medium, 10^6 CFU/ml, read-out: MIC): 100 µg/mL (≈ 263 µM)
MIC ([23]; strain N176, agar dilution, Mueller Hinton medium, 10^6 CFU/ml, read-out: MIC): 12.5 µg/mL (≈ 32.9 µM)
MIC ([24]; strain C7, agar dilution, Mueller Hinton medium, 10^6 CFU/ml, read-out: MIC): 50 µg/mL (≈ 131 µM)
MIC ([25]; strain N83, agar dilution, Mueller Hinton medium, 10^6 CFU/ml, read-out: MIC): 3.13 µg/mL (≈ 8.23 µM)
MIC ([26]; strain N247-21, agar dilution, Mueller Hinton medium, 10^6 CFU/ml, read-out: MIC): 200 µg/mL (≈ 526 µM)
MIC ([27]; strain N64, agar dilution, Mueller Hinton medium, 10^6 CFU/ml, read-out: MIC): 1600 µg/mL (≈ 4210 µM)
Compound: COc1cccc(OC)c1C(=O)N[C@@H]1C(=O)N2[C@@H]1SC(C)(C)[C@@H]2C(=O)O [DMPPC, Methicillin]

Compound: CC[C@H]1OC(=O)[C@H](C)[C@@H](O[C@H]2C[C@@](C)(OC)[C@@H](O)[C@H](C)O2)[C@H](C)[C@@H](O[C@@H]2O[C@H](C)C[C@H](N(C)C)[C@H]2O)[C@](C)(O)C[C@@H](C)C(=O)[C@H](C)[C@@H](O)[C@]1(C)O [EM, Erythromycin]
MIC [1]: 0.39 µg/mL (≈ 0.531 µM)
MIC ([2]; N262): > 100 µg/mL
MIC ([3]; C4): 0.39 µg/mL (≈ 0.531 µM)
MIC ([4]; N62): > 100 µg/mL
MIC ([5]; C10): > 100 µg/mL
MIC ([6]; N91): 0.39 µg/mL (≈ 0.531 µM)
MIC ([7]; N8): > 100 µg/mL
MIC ([8]; N237): > 100 µg/mL
MIC ([9]; N51): 0.39 µg/mL (≈ 0.531 µM)
MIC ([10]; N121): 0.39 µg/mL (≈ 0.531 µM)
MIC [11]: > 100 µg/mL
MIC ([12]; N28): > 100 µg/mL
MIC [13]: > 100 µg/mL
MIC [14]: > 100 µg/mL
MIC [15]: > 100 µg/mL
MIC ([16]; N235): > 100 µg/mL
MIC [17]: 3.13 µg/mL (≈ 4.26 µM)
MIC ([18]; N247): 6.25 µg/mL (≈ 8.52 µM)
MIC ([19]; N129): 0.39 µg/mL (≈ 0.531 µM)
MIC ([20]; N326): > 100 µg/mL
MIC ([21]; C3): > 100 µg/mL
MIC ([22]; N267): > 100 µg/mL
MIC ([23]; N176): > 100 µg/mL
MIC ([24]; C7): 12.5 µg/mL (≈ 17 µM)
MIC ([25]; N83): > 100 µg/mL
MIC [26]: 6.25 µg/mL (≈ 8.52 µM)
MIC ([27]; N64): > 100 µg/mL

Compound: NC[C@H]1O[C@H](O[C@H]2[C@H](O)[C@@H](O[C@H]3O[C@H](CO)[C@@H](O)[C@H](N)[C@H]3O)[C@H](N)C[C@@H]2N)[C@H](O)[C@@H](O)[C@@H]1O [KM, Kanamycin]
MIC [1]: 0.39 µg/mL (≈ 0.805 µM)
MIC ([2]; N262): > 100 µg/mL
MIC ([3]; C4): > 100 µg/mL
MIC ([4]; N62): 25 µg/mL (≈ 51.6 µM)
MIC ([5]; C10): > 100 µg/mL
MIC ([6]; N91): > 100 µg/mL
MIC ([7]; N8): 1.56 µg/mL (≈ 3.22 µM)
MIC ([8]; N237): > 100 µg/mL
MIC ([9]; N51): 3.13 µg/mL (≈ 6.46 µM)
MIC ([10]; N121): > 100 µg/mL
MIC [11]: > 100 µg/mL
MIC ([12]; N28): > 100 µg/mL
MIC [13]: 1.56 µg/mL (≈ 3.22 µM)
MIC [14]: > 100 µg/mL
MIC [15]: 1.56 µg/mL (≈ 3.22 µM)
MIC ([16]; N235): 100 µg/mL (≈ 206 µM)
MIC [17]: > 100 µg/mL
MIC ([18]; N247): > 100 µg/mL
MIC ([19]; N129): > 100 µg/mL
MIC ([20]; N326): > 100 µg/mL
MIC ([21]; C3): > 100 µg/mL
MIC ([22]; N267): > 100 µg/mL
MIC ([23]; N176): 3.13 µg/mL (≈ 6.46 µM)
MIC ([24]; C7): > 100 µg/mL
MIC ([25]; N83): > 100 µg/mL
MIC [26]: > 100 µg/mL
MIC ([27]; N64): > 100 µg/mL
